The test system of experiment [1] is IGF2-expressing TNBC cells. Description: TNBC cell proliferation in vitro. Type of experiment: cell-based, human. The conditions noted are these: alone and combined.
For experiment [2], the system named is AR. Description: AR levels in TNBC cells. Type of experiment: cell-based. The settings on record: in vitro.
Experiment [3] concerns murine 4T1 TNBC. Description: Cell viability of murine 4T1 TNBC in vitro. Type of experiment: cell-based. As to the method:
After seeding TNBC cells for 24 hr, cells were exposed to selected combinations of BMS-754807 (20 μM), enzalutamide (20 μM), and NVP-AEW541 (8 μM) for 72 h. Cell viability was tested by CellTiter 96® aqueous non-radioactive cell proliferation assay (error bar=SEM; n=8; **P<0.001 *P<0.05). Results shown as % of vehicle treated controls.

The subject of experiment [4] is 4T1 TNBC cells. Nature of the experiment: Murine 4T1 TNBC model in syngeneic BALB/c mice. Type of experiment: in vivo. As to the method: FIG. 6A-D show a combination treatment of BMS with anti PD-L1 checkpoint antibody suppresses 4T1 TNBC xenograft progression in vivo. TNBC 4T1 cells (2×105) were implanted in the mammary fat pads of BALB/c female mice (6-week old) using established methods. Mice were then randomized for treatment when tumor volumes were approx. 200 mm3. Mice were treated with either vehicle control (Con), BMS 10 mg/kg, by oral gavage, daily (BMS), anti-PD-L1 checkpoint antibody from Biolegend (anti-CD274/B7-H1/PD-L1 clone 10F.9G2, 100 μg/mouse IP in PBS, Q3 days) (Ab) or combination therapy with BMS and anti-PD-L1 antibody (BMS+Ab). Tumor sizes were recorded Q 2-3 days; and mice were weighed twice weekly. Studies used 5 mice/group.
TNBC clinical trials have shown a potential benefit of anti-PD-L1 antibodies as ICIs for anti-TNBC therapy. […] Thus, 4T1 cells were implanted in mammary fat pads of female syngeneic BALB/c mice to assess antitumor efficacy of BMS-754807 alone and combined with anti-PD-L1 antibodies in mice with intact immune systems (FIG. 6). After 10 days of treatment, tumors were harvested and processed for mass cytometry analyses to assess changes in immune cell subsets under different treatment conditions in FIG. 6.

Experiment [5] concerns IGF2-expressing TNBC cells. The settings on record: in vitro; statement carries reference 1; cited from earlier work.
In experiment [6] the test system is MDA-MB-231 TNBC cell line. Description: Scratch wound migration assay (IncuCyte S3). Type of experiment: cell-based, human. The settings on record: media conditioned with IGF2 alone (100 ng/ml), 48 h. As to the method: (§1) MDA-MB-231 and HCC 1937 TNBC cell lines were cultured in complete media in 96-welled plates. In each well 60,000 cells were plated. Scratch wounds were made using Unique WoundMaker™. Wound images were collected every 2 h for 48 h using the IncuCyte S3 Live-Cell Analysis System. Media containing IGF2 (100 ng/ml) was refreshed daily. […] Magnification 100×. P<0.05. […] Magnification 100×. P<0.05. FIGS. 4C & D show conditioned media containing a combination of IGF1R/IR antagonists. […] BMS/NVP=BMS-754807 (20 uM) and NVP-AEW541 (8 uM).
(§2) In vitro TNBC cell migration is stimulated in media conditioned with IGF2 alone (FIGS. 4A & 4B).

The subject of experiment [7] is HCC 1937 TNBC cell line. Description: Scratch wound migration assay (IncuCyte S3). The format is cell-based. The settings on record: media conditioned with IGF2 alone (100 ng/ml), 48 h. As to the method:
as §1, §2

“Also recorded” adds a separate entry of the source.

`Nc1ncnc2c1c(-c1cccc(OCc3ccccc3)c1)cn2C1CC(CN2CCC2)C1` (centres unmarked) [NVP-AEW541]: in experiment [1], the “anti-proliferative effects on IGF2-expressing TNBC cells” value is “anti-proliferative effects”. Besides, the “levels of ARs in TNBC cells” value in experiment [2] is “decrease levels of ARs”.
Take `C[C@@]1(C(=O)Nc2ccc(F)nc2)CCCN1c1nc(Nc2cc(C3CC3)n[nH]2)c2cccn2n1` [BMS-754807]: in experiment [1], the “anti-proliferative effects on IGF2-expressing TNBC cells” value is reported as “anti-proliferative effects”. Further, in experiment [2], the “levels of ARs in TNBC cells” value is “decrease levels of ARs”. Moreover, the cell viability result in experiment [3] is given as “Reduction of cell viability”. In addition, the “tumor volume / TNBC progression” value in experiment [4] (BALB/c mice, 4T1 in mammary fat pads, BMS 10 mg/kg oral gavage daily, anti-PD-L1 antibody 100 μg/mouse IP Q3 days) is reported as “markedly reduced tumor volume; also recorded: significant antitumor effects”. The “myeloid derived suppressor cells (MDSCs), total and PMN-MDSC, in tumors” value in experiment [4] (mass cytometry of 4T1 tumors harvested after 10 days of treatment, BMS 10 mg/kg oral daily, Ab 100 μg IP Q3 days) was “decreased levels”. For the same compound, in experiment [4] (mass cytometry of 4T1 tumors, BMS 10 mg/kg oral daily, Ab 100 μg IP Q3 days), the “effector CD8+ and CD4+ tumor infiltrating lymphocytes (TILs)” value was “significantly increased”. The “human TNBC cell proliferation” value in experiment [5] was “reduce human TNBC cell proliferation”.
In the case of “IGF2: insulin-like growth factor 2, hormone added to media at 100 ng/ml”, the cell migration entry in experiment [6] and in experiment [7] was “stimulated” in each case.

Source of the values: patent publication US12702670B2, “Compositions and methods for treating breast cancer” (The Regents of the University of California, priority 2020, dated 2026).
